These are literature values, as cited in patent US10758479B2, “Galenical form for the administration of active ingredients by transmucous means” (priority 2006, dated 2020).

SMILES strings stand for the structures.

For data set [1] the following is noted: nasal, per-mucous path.

Turning to `CNS(=O)(=O)Cc1ccc2[nH]cc(CCN(C)C)c2c1` [Sumatriptan], the period of action result (administered enterally) is reported as “about two”. Further, the residual bioavailability entry (administered via the digestive tract) is listed as “less than 14 % of the administered dose”.
With `C[C@]12CC[C@@H]3c4ccc(O)cc4CC[C@H]3[C@@H]1CC[C@@H]2O` [estradiol], in data set [1], the mean bioavailability result is on record as “less than 25 % of the administered dose”.
Take `CN(C)C(=O)C(CCN1CCC(O)(c2ccc(Cl)cc2)CC1)(c1ccccc1)c1ccccc1` [loperamide, Loperamide]: for the setting “in the 2 mg administered by the digestive tract”, the “portion of the effectively bioavailable dose” value was ≤ 0.25 mg.
